The target in one test is T1, ULK2 kinase (Homo sapiens, UniProt Q8IYT8).
T1 construct: purchased Eurofins 14-772
Put plainly: Biochemical assay for ULK2 (coupled pyruvate kinase/lactate dehydrogenase assay). As to conditions: 9.7 nM ULK2 (Eurofins), myelin basic protein, 1 mM ATP; read-out: ULK2.2. The method, then:
Example 176. Biochemical Assay for ULK2
Activity of ULK2 kinase was determined spectroscopically using a coupled pyruvate kinase/lactate dehydrogenase assay that continuously monitors the ATP hydrolysis-dependent oxidation of NADH (e.g., Schindler et al. Science (2000) 289: 1938-1942). Assays were conducted in 384-well plates (100 uL final volume) using 9.7 nM ULK2 (Eurofins CAT #14-772), 0.25 mg/mL myelin basic protein, 1.5 units pyruvate kinase, 2.1 units lactate dehydrogenase, 1 mM phosphoenol pyruvate, 0.28 mM NADH and 1 mM ATP in assay buffer (100 mM Tris, pH 7.5, 15 mM MgCl2, 0.5 mM DTT, 0.1% octyl-glucoside, 0.002% (w/v) BSA, and 0.002% Triton X-100). Inhibition of ULK2 was measured by adding serial diluted test compound (final assay concentration of 1% DMSO). A decrease in absorption at 340 nm was monitored continuously for 6 hours at 30° C. on a multi-mode microplate reader (BioTek). The reaction rate was calculated using the 2-3 h time frame. The reaction rate at each concentration of compound was converted to percent inhibition using controls (i.e. reaction with no test compound and reaction with a known inhibitor) and IC50 values were calculated by fitting a four-parameter sigmoidal curve to the data using Prism (GraphPad software).

The target in the next test is T2, ULK1 kinase (Homo sapiens, UniProt O75385).
T2 construct: purchased Eurofins 14-959
T2 sequence (O75385 with tags, fused parts or gaps): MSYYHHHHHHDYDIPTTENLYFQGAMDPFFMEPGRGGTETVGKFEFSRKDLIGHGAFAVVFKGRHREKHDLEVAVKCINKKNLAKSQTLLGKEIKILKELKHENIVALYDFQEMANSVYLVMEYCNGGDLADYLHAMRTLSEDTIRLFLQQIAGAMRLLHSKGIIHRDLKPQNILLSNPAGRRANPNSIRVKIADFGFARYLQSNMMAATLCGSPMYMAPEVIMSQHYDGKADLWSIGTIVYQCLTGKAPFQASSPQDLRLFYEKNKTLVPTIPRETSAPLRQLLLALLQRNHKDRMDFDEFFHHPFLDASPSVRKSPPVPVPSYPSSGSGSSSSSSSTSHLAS
Put plainly: Biochemical assay for ULK1.2 (coupled pyruvate kinase/lactate dehydrogenase assay). Conditions: 19 nM ULK1 (Eurofins), myelin basic protein, 1 mM ATP. Summed up: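 NADH-coupled PK/LDH read-out at 340 nm, run with 19 nM ULK1, 0.25 mg/mL myelin basic protein and 1 mM ATP. Buffer was 100 mM Tris pH 7.5 with 15 mM MgCl2 and 1% DMSO final. Monitoring was continuous for 6 hours at 30° C; rates from the 2-3 h window were converted to percent inhibition and fitted to a four-parameter curve for IC50.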

The subject of test [1] is phospho-Serine 318 ATG13 (pATG13), ULK kinase substrate, in A549 (KRAS mutant) cells. Nature of the test: pATG13 levels of mutant KRas A549 cells after treatment with ULK inhibitors in combination with trametinib (ELISA). Format: cell-based, human. Conditions: with 250 nM trametinib. As to the method: Example 177. Cellular Inhibition of ULK Kinase Substrate ATG13 Protein pATG13 Levels of Mutant KRas A549 Cells after Treatment with ULK Inhibitors in Combination with Trametinib
A549 (KRAS mutant) human lung cancer cells (6,000 cells/well) were added to a 384-well tissue-culture treated plate in 50 μL of pre-warmed DMEM medium supplemented with 10% characterized fetal bovine serum (Invitrogen, Carlsbad, Calif.), 100 units/mL penicillin G, and 100 μg/mL streptomycin and allowed to grow overnight at 37° C., 5% CO2, and 95% humidity. The following day, 10 μL of media containing trametinib or DMSO as a control was added to wells. The final concentration of trametinib in wells was 250 nM. A dose response of a test compound (0.6 μL per well) was added. DMSO (0.6 μL) was added to control wells. The plate was briefly shaken to mix wells and then incubated at 37° C. overnight. The next day, the media was aspirated and cells were washed with Dulbecco's Phosphate Buffered Saline (Gibco). Cells were lysed using MPER lysis buffer (Pierce, Rockford, Ill.) containing Halt Phosphatase and Protease Inhibitors (Pierce, Rockford, Ill.) and Phosphatase inhibitor cocktail 2 (Sigma, St. Louis, Mo.) at 4° C. for 10 minutes with shaking.
Cellular levels of phospho-Serine 318 ATG13 (pATG13) were measured via an ELISA method. Total ATG13 Antibody (Cell Signaling Cat #13273) was used to coat the wells. The plate was incubated at 4° C. overnight and washed with ELISA wash buffer (Biolegend Cat #421601). The wells were then blocked with assay diluent (Biolegend Cat #421203) for 1 hour at room temperature. Plate wells were washed with ELISA wash buffer. Cell lysate was added to wells and incubated at room temperature for 2 hours. Plate wells were washed with ELISA wash buffer. Biotinylated pS318-ATG13 antibody (Rockland Immunochemicals Cat #600-401-C49) was diluted in assay diluent and added to each well and incubated at room temperature for 1 hour. Plate wells were washed with ELISA wash buffer. Streptavidin linked to horseradish peroxidase (Thermo Fisher Cat #21140) was diluted in assay diluent and added to each well and incubated at room temperature for 1 hour. Plate wells were washed with ELISA wash buffer. High sensitivity TMB substrate (Biolegend Cat #421101) was added to each well and incubated at room temperature for 20 minutes. The reaction was stopped with 2N Sulfuric Acid. The plate was analyzed at on a plate reader measuring absorbance at 450 nm and 540 nm (background). Signal was calculated by first subtracting the background absorbance at 540 nm from the absorbance at 450 nm for each well. Next, the background corrected absorbance at 450 nm from blank wells was subtracted from test wells. Data was compared to control wells to determine % ATG13 phosphorylation. GraphPad Prism was used to calculate IC50 values.
A general note: ELISA stands for enzyme-linked immunosorbent assay.

The target of a further test is T3, LRRK2 kinase (Homo sapiens, UniProt Q5S007).
T3 construct: purchased Thermo Fisher
Nature of the test: Biochemical assay for LRRK2 (coupled pyruvate kinase/lactate dehydrogenase assay). As to conditions: 26.4 nM LRRK2 (residues 970-2528), 0.1 mM peptide substrate, 1 mM ATP. The method, then: Example 182. Biochemical Assay for LRRK2 (SEQ. ID NO. 4)
Activity of LRRK2 kinase was determined spectroscopically using a coupled pyruvate kinase/lactate dehydrogenase assay that continuously monitors the ATP hydrolysis-dependent oxidation of NADH (e.g., Schindler et al. Science (2000) 289: 1938-1942). Assays were conducted in 384-well plates (100 uL final volume) using 26.4 nM LRRK2 (Thermo Fisher), 0.1 mM peptide substrate (RLGRDKYKTLRQIRQ (SEQ ID NO: 6)), 1.5 units pyruvate kinase, 2.1 units lactate dehydrogenase, 1 mM phosphoenol pyruvate, 0.28 mM NADH and 1 mM ATP in assay buffer (100 mM Tris, pH 7.5, 15 mM MgCl2, 0.5 mM DTT, 0.004% (w/v) BSA, and 0.004% Triton X-100). Inhibition of LRRK2 was measured by adding serial diluted test compound (final assay concentration of 1% DMSO). A decrease in absorption at 340 nm was monitored continuously for 6 hours at 30° C. on a multi-mode microplate reader (BioTek). The reaction rate was calculated using the 2-3 h time frame. The reaction rate at each concentration of compound was converted to percent inhibition using controls (i.e. reaction with no test compound and reaction with a known inhibitor) and IC50 values were calculated using software routines in Prism (GraphPad software).

T1 sequence (Q8IYT8 with tags, fused parts or gaps): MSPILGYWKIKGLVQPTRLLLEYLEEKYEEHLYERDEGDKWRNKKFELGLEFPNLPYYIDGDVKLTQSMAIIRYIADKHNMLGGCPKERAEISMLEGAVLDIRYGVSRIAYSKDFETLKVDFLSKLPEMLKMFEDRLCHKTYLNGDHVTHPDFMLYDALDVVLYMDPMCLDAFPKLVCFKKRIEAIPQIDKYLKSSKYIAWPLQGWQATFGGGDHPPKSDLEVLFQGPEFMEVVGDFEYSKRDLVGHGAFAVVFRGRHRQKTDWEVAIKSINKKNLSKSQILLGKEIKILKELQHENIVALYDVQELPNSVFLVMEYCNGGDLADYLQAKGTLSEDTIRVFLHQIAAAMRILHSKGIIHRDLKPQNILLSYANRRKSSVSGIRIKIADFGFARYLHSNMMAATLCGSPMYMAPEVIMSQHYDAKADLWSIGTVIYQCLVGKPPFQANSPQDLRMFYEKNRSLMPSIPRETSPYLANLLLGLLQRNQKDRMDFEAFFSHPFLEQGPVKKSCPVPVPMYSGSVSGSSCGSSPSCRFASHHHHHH
T3 sequence (Q5S007 with tags, fused parts or gaps): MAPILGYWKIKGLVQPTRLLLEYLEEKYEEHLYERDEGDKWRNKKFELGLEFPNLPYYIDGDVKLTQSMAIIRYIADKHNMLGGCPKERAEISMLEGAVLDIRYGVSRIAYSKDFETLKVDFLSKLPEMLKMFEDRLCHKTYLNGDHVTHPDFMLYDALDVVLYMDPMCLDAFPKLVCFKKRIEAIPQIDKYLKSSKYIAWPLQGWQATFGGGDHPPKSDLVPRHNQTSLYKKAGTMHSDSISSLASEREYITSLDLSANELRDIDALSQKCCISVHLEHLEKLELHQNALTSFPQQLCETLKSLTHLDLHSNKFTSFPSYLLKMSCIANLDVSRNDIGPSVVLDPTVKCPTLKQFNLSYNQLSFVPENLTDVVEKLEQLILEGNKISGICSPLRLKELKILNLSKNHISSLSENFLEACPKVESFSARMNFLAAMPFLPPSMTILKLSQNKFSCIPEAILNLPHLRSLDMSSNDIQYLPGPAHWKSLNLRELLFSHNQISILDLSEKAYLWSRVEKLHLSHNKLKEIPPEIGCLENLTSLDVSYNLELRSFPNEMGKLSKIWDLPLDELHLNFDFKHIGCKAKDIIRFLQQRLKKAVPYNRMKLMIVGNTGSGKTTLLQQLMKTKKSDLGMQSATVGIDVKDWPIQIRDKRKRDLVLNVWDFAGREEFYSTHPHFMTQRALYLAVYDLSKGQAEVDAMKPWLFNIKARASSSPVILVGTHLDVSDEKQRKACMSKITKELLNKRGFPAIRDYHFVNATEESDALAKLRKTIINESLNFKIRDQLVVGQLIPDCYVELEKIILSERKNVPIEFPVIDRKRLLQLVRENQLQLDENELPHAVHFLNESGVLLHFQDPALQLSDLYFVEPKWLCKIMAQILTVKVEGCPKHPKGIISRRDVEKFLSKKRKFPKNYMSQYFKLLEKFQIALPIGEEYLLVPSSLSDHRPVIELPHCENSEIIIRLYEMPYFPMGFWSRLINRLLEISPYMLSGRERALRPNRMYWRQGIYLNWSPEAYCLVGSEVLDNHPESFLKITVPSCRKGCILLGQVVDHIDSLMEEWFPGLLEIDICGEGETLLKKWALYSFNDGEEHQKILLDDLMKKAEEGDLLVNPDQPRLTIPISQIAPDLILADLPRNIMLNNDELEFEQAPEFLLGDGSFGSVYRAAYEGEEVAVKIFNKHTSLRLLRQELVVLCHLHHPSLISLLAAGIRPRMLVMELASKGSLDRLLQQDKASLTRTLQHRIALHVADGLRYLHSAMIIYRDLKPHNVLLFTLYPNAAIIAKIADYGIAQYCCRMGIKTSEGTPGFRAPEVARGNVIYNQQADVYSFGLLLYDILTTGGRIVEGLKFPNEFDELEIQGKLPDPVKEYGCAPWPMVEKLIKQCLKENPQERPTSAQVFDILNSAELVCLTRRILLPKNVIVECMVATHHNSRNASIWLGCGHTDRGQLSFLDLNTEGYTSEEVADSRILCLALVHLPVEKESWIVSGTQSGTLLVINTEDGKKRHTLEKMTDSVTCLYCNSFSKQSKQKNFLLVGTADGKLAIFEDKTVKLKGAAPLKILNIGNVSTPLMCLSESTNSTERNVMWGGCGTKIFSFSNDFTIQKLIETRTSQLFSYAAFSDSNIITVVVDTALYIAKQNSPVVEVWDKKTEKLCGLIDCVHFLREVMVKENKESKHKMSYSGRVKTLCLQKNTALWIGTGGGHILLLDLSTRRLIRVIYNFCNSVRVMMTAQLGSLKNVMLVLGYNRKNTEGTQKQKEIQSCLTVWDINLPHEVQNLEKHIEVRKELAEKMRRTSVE

With `CN1CCC(n2cc(Nc3ncc(C(F)(F)F)c(NCCCN4CCCC4=O)n3)cn2)CC1` [Example 166], the IC50 at ULK2 kinase is 25 to 100 nM; against ULK1 kinase, 1 to 25 nM; in test [1], 100 to 300 nM.
The like results for `CCN1CC[C@@H](n2cc(Nc3ncc(C(F)(F)F)c(NCCCN4CCCCC4=O)n3)c(C)n2)C1` [Example 25] were, in that order, 25 to 100 nM, 1 to 25 nM and 10 to 100 nM.
The like results for `O=C1CCCCCN1CCCNc1nc(Nc2cnn(C3CCNCC3)c2)ncc1C(F)(F)F` [Example 77] were, in that order, 1 to 25 nM, 1 to 25 nM and 100 to 300 nM.
As for `Cc1nn(C2CCNCC2)cc1Nc1ncc(Cl)c(NCCCN2CCCCCC2=O)n1` [Example 86], the IC50 at ULK2 kinase was 100 to 500 nM; against ULK1 kinase it was 25 to 100 nM; in test [1], above 600 nM.
For `CN1CCC(n2cc(Nc3ncc(Cl)c(NCCCN4CCCCCC4=O)n3)cn2)CC1` [Example 81], in that order: 1 to 25 nM, 1 to 25 nM and 10 to 100 nM.
For `Cc1nn(C2CCN(C)CC2)cc1Nc1ncc(Br)c(NCCCN2CCCCC2=O)n1` [Example 51], in that order: 25 to 100 nM, 1 to 25 nM and above 600 nM.
For the compound `CN1CCC(n2cc(Nc3ncc(C(F)(F)F)c(NCCCN4CCCCCC4=O)n3)cn2)CC1` [Example 78], the IC50 lay within 1 to 25 nM on ULK2 kinase, 1 to 25 nM at ULK1 kinase and 10 to 100 nM in test [1].
As to `O=C1CCCCN1CCCNc1nc(Nc2cnn(C3CCNCC3)c2)ncc1Cl` [Example 4], the IC50 on ULK2 kinase was 25 to 100 nM; at ULK1 kinase it was 1 to 25 nM; in test [1], above 600 nM.
Consider `CN1CCC(n2cc(Nc3ncc(C4CC4)c(NCCCN4CCCCC4=O)n3)cn2)CC1` [Example 1], for which the IC50 was above 500 nM on ULK2 kinase, above 600 nM at LRRK2 kinase and 25 to 100 nM against ULK1 kinase.
Turning to `Cc1nn(C2CCNCC2)cc1Nc1ncc(C(F)(F)F)c(NCCCN2CCCCCC2=O)n1` [Example 83, 1-(3-((2-((3-methyl-1-(piperidin-4-yl)-1H-pyrazol-4-yl)amino)-5-(trifluoromethyl)pyrimidin-4-yl)amino)propyl)azepan-2-one], the IC50 is 1 to 25 nM on ULK2 kinase, 1 to 25 nM against ULK1 kinase and 100 to 300 nM in test [1].
Consider `Cc1nn(C2CCNCC2)cc1Nc1ncc(Br)c(NCCCN2CCCCC2=O)n1` [Example 26], for which the IC50 is 25 to 100 nM at ULK2 kinase, 300 to 600 nM at LRRK2 kinase, 1 to 25 nM against ULK1 kinase and above 600 nM in test [1].
As to `CN1CCC(n2cc(Nc3ncc(C4CC4)c(NCCCN4CCN(C)C4=O)n3)cn2)CC1` [Example 147], the IC50 at ULK2 kinase was above 500 nM; on LRRK2 kinase it was above 600 nM; against ULK1 kinase, 100 to 500 nM.
For the compound `Cc1nn(C2CCN(C3COC3)CC2)cc1Nc1ncc(C(F)(F)F)c(NCCCN2CCCCCC2=O)n1` [Example 91], the results for the IC50 (on ULK2 kinase; against ULK1 kinase; in test [1]) were 100 to 500 nM, 1 to 25 nM and 300 to 600 nM, respectively.
As for `Cc1nn(C2CCNCC2)cc1Nc1ncc(C(F)(F)F)c(NCCCN2CCCC2=O)n1` [Example 103], the figures for the IC50 (at ULK2 kinase; at ULK1 kinase; in test [1]) were 25 to 100 nM, 25 to 100 nM and above 600 nM, respectively.
With `Cc1nn(C2CCNCC2)cc1Nc1ncc(Cl)c(NCCCN2CCCCC2=O)n1` [Example 27], the IC50 on ULK2 kinase is 100 to 500 nM; against ULK1 kinase, 25 to 100 nM; in test [1], above 600 nM.
Consider `Cc1nn(C2CCN(C)CC2)cc1Nc1ncc(Cl)c(NCCCN2CCCCCC2=O)n1` [Example 80, 1-(3-((5-chloro-2-((3-methyl-1-(1-methylpiperidin-4-yl)-1H-pyrazol-4-yl)amino)pyrimidin-4-yl)amino)propyl)azepan-2-one], for which the IC50 at ULK2 kinase lay within 100 to 500 nM; on LRRK2 kinase, 100 to 300 nM; against ULK1 kinase, 1 to 25 nM; in test [1], 10 to 100 nM.
With `Cc1nn(C2CCN(C)CC2)cc1Nc1ncc(C(F)(F)F)c(NCCCN2CCCC2=O)n1` [Example 104], the IC50 on ULK2 kinase is 25 to 100 nM; against LRRK2 kinase, 300 to 600 nM; against ULK1 kinase, 25 to 100 nM; in test [1], above 600 nM.

These data come from patent US11518758B2, “Heteroarylaminopyrimidine amide autophagy inhibitors and methods of use thereof” (Deciphera Pharmaceuticals, LLC, priority 2019, dated 2022).
